Values quoted from earlier work, collected in patent US5017369A, “Film-forming teat sealer for prevention of mastitis and use thereof” (priority 1989, dated 1991).

Details: gluconate salt dissolved in water

## N=C(NCCCCCCNC(=N)NC(=N)Nc1ccc(Cl)cc1)NC(=N)Nc1ccc(Cl)cc1 [chlorhexidine gluconate, bis(p-chlorophenyl-diguanido)hexane]
  pH of water solutions: ~7.0
